{"source": "paper PMC5556071", "about": "“ATR inhibition facilitates targeting of leukemia dependence on convergent nucleotide biosynthetic pathways” (Nature Communications, 2017)", "tested_on": "CEM cells", "experiment": "Non-targeted LC-MS metabolite profiling: percent [13C6]glucose labeling and relative metabolite levels", "format": "cell-based, human", "source_text": "To further investigate the functions of dCK and ATR at the G1/S transition in CEM cells, a non-targeted liquid chromatography mass spectrometry (LC-MS) assay was used to determine the utilization of labeled [^13C6]glucose and [^13C9,^15N3]deoxycytidine, the main substrates for de novo and salvage nucleotide biosynthesis, respectively. Of the 166 metabolites identified in CEM cells treated with VE-822 and/or dCKi, 105 metabolites found in all four treatment groups contained glucose-derived ^13C atoms. […] These metabolites included intermediates such as rUTP, rCTP and rCDP in the de novo dCTP biosynthesis (Fig. 1d). […] However, several deoxyribonucleotides, including dCTP, were below the limit of detection of the non-targeted LC-MS approach, raising the concern that the sensitivity of this assay is not sufficient to measure the contribution of the salvage pathway or the ratio of de novo and salvage biosynthesis to these pools. To address this problem, a newly developed targeted MS assay was developed (Fig. 1e and Supplementary Fig. 3). In this assay, samples containing either extracted dNTPs or hydrolyzed DNA from labeled cells are separated by LC for detection by a triple quadrupole mass spectrometer using multiple reaction monitoring (LC-MS/MS-MRM). The first (Q1) and third (Q3) quadrupoles function as mass filters, while the second (Q2) quadrupole serves as a collision chamber (Fig. 1e). For instance, to profile the biosynthetic composition of deoxycytidine (dC) derived from hydrolyzed DNA or dCTP, an intact, protonated dC ion is selected in Q1, followed by fragmentation of the glycosidic bond, which releases protonated cytosine in Q2, that is filtered in Q3 and detected to generate an ion chromatogram. The peak areas for the ion chromatograms of salvage [^13C9,^15N3]dC (red trace), de novo [^13C5]dC (black trace, from [^13C6]glucose) and unlabeled dC (gray trace) (Fig. 1e) are used to determine the relative contributions of the de novo and salvage routes both to dCTP pools and to DNA-incorporated dCTP.\nCells were transferred into RPMI-1640 without glucose and supplemented with 10% dialyzed FBS (Gibco) containing the following labeled substrates: precursors for de novo [U-^13C6]glucose (Sigma-Aldrich, 389374) at 11 mM; precursors for purine salvage [U-^13C10,^15N5]dA (Cambridge Isotopes, CIL 3896), [^15N5]dA (Cambridge Isotopes, NLM-3895) and [^15N5]dG (Cambridge Isotopes, NLM-3899) at 5 µM or as indicated; and precursors for pyrimidine salvage: [U-^13C9,^15N3]dC (Silantes, 124603602) and [U-^13C10,^15N2]dT (Cambridge Isotopes, CNLM-3902) at 5 µM and [^15N2]orotate (Cambridge Isotopes, NLM-1048) at indicated concentrations. The cells were incubated for 12 h or as indicated before sample collection and processing. […]\nNon-targeted LC-MS metabolic assays. 1 x 10^6 cells were washed with ice-cold 150 mM ammonium acetate twice before adding 1 mL of ice-cold 80% methanol with 10 nM norvaline as an internal standard. After vigorous vortexing, samples were centrifuged at maximum speed, the aqueous layer was transferred to a glass vial and the metabolites were dried under vacuum. Metabolites were resuspended in 50 μL 70% acetonitrile (ACN) and 5 μL of this solution used for the mass spectrometer-based analysis. The analysis was performed on a Q Exactive (Thermo Scientific) in polarity-switching mode with positive voltage 4.0 kV and negative voltage 4.0 kV. The mass spectrometer was coupled to an UltiMate 3000RSLC (Thermo Scientific) UHPLC system. Mobile phase A was 5 mM ammonium acetate (NH4AcO), pH 9.9, B was acetonitrile and the separation achieved on a Luna […] NH2 100 A column (150 × 2.0 mm, Phenomenex). The flow was 200 μL/min, and the gradient ran from 15% A to 95% A in 18 min, followed by an isocratic step for 9 min and re-equilibration for 7 min. Metabolites were detected and quantified as area under the curve based on retention time and accurate mass (≤ 3 p.p.m.) using the TraceFinder 3.1 (Thermo Scientific). Relative amounts of […]", "key": {"[1]": {"details": "metabolite Gln (KEGG C00064), CEM cells, 12 h following release from G1 arrest, replicates #1-#6, listed as V"}, "[2]": {"details": "metabolite Glu (KEGG C00025), CEM cells, 12 h following release from G1 arrest, replicates #1-#6, listed as V"}, "[3]": {"details": "metabolite GlucA (KEGG C00191), CEM cells, 12 h following release from G1 arrest, replicates #1-#6, listed as V"}, "[4]": {"details": "metabolite Gly (KEGG C00037), CEM cells, 12 h following release from G1 arrest, replicates #1-#6, listed as V"}, "[5]": {"details": "metabolite Glycerol (KEGG C00116), CEM cells, 12 h following release from G1 arrest, replicates #1-#6, listed as V"}, "[6]": {"details": "metabolite Glycerol-2-P (KEGG C02979), CEM cells, 12 h following release from G1 arrest, replicates #1-#6, listed as V"}, "[7]": {"details": "metabolite Glycerol-3-P (KEGG C00093), CEM cells, 12 h following release from G1 arrest, replicates #1-#6, listed as V"}, "[8]": {"details": "metabolite Homocysteine (KEGG C00155), CEM cells, 12 h following release from G1 arrest, replicates #1-#6, listed as V"}, "[9]": {"details": "metabolite Hypoxanthine (KEGG C00262), CEM cells, 12 h following release from G1 arrest, replicates #1-#6, listed as V"}, "[10]": {"details": "metabolite IMP (KEGG C00130), CEM cells, 12 h following release from G1 arrest, replicates #1-#6, listed as V"}, "[11]": {"details": "metabolite Inosine (KEGG C00294), CEM cells, 12 h following release from G1 arrest, replicates #1-#6, listed as V"}, "[12]": {"details": "metabolite a-KG (C00026), CEM cells, 12 h following release from G1 arrest, replicates #1-#6, listed as V"}}, "note": "Values joined by “and” are separate entries in the source; they are usually repeats but may differ in a detail not shown here. Identical values can stand only once."}
{"smiles": "CNCc1ccc(-c2cc(-c3nc(-c4ccc(S(=O)(=O)C(C)C)cc4)cnc3N)on2)cc1", "note": "[VE-822]", "values": [{"measurement": "Glucose labeling of Gln", "setting": "[1]", "result": "0.12% (2×) and 0.11% and 0.10% and 0.14% and 0.13%"}, {"measurement": "Relative level of Gln", "setting": "[1]", "result": "1.4 and 1.5 (2×) and 1.0 (2×) and 1.1"}, {"measurement": "Glucose labeling of Glu", "setting": "[2]", "result": "29.64% and 29.75% and 29.30% and 29.37% and 29.63% and 30.02%"}, {"measurement": "Relative level of Glu", "setting": "[2]", "result": "1.1 and 1.0 (2×) and 0.8 and 0.6 (2×)"}, {"measurement": "Glucose labeling of GlucA", "setting": "[3]", "result": "1.00% and 0.54% and 0.16% and 1.19% and 0.18% (2×)"}, {"measurement": "Relative level of GlucA", "setting": "[3]", "result": "1.5 and 1.3 (2×) and 0.9 and 0.664 and 0.6"}, {"measurement": "Glucose labeling of Gly", "setting": "[4]", "result": "3.91% and 4.81% and 4.97% and 3.57% and 3.82% and 3.53%"}, {"measurement": "Relative level of Gly", "setting": "[4]", "result": "1.8 and 1.3 (2×) and 0.853 and 0.8 and 0.846"}, {"measurement": "Glucose labeling of Glycerol", "setting": "[5]", "result": "0.0369% (3×) and 0.02% and 0.03% and 0.0184%"}, {"measurement": "Relative level of Glycerol", "setting": "[5]", "result": "0.6 and 1.0 and 0.643 and 1.2 (2×) and 2.5"}, {"measurement": "Glucose labeling of Glycerol-2-P", "setting": "[6]", "result": "20.62% and 19.08% and 14.73% and 9.01% and 11.61% and 10.03%"}, {"measurement": "Relative level of Glycerol-2-P", "setting": "[6]", "result": "2.7 and 1.2 and 1.6 and 1.8 and 0.334 and 0.262"}, {"measurement": "Glucose labeling of Glycerol-3-P", "setting": "[7]", "result": "13.71% and 13.99% and 13.43% and 15.94% and 16.61% and 16.91%"}, {"measurement": "Relative level of Glycerol-3-P", "setting": "[7]", "result": "1.3 and 1.4 (2×) and 1.0 (2×) and 0.9"}, {"measurement": "Glucose labeling of HS2O3", "setting": "metabolite HS2O3 (KEGG C00320), CEM cells, 12 h following release from G1 arrest, replicates #1-#6", "result": 100.00, "unit": "%"}, {"measurement": "Relative level of HS2O3", "setting": "metabolite HS2O3 (KEGG C00320), CEM cells, 12 h following release from G1 arrest, replicates #1-#6, listed as V", "result": "1.2 and 0.9 and 1.0 (3×) and 1.1"}, {"measurement": "Glucose labeling of His", "setting": "metabolite His (KEGG C00135), CEM cells, 12 h following release from G1 arrest, replicates #1-#6", "result": 0.00, "unit": "%"}, {"measurement": "Relative level of His", "setting": "metabolite His (KEGG C00135), CEM cells, 12 h following release from G1 arrest, replicates #1-#6, listed as V", "result": "1.3 and 1.5 and 1.4 and 0.7 and 0.8 (2×)"}, {"measurement": "Glucose labeling of Homocysteine", "setting": "[8]", "result": "0.000288% and 0.000653% and 0.00102% and 0.000955% and 0.0737% (2×)"}, {"measurement": "Relative level of Homocysteine", "setting": "[8]", "result": "2.9 and 3.8 and 5.4 and 40.5 and 0.9 and 1.3"}, {"measurement": "Glucose labeling of Hypoxanthine", "setting": "[9]", "result": "0.12% (2×) and 0.05% and 0.0153% and 0.00222% and 0.0636%"}, {"measurement": "Relative level of Hypoxanthine", "setting": "[9]", "result": "2.4 and 3.2 and 4.8 and 46.0 and 2.3 and 1.3"}, {"measurement": "Glucose labeling of IMP", "setting": "[10]", "result": "85.88% and 80.98% and 88.08% and 72.70% and 96.97% and 95.32%"}, {"measurement": "Relative level of IMP", "setting": "[10]", "result": "2.4 and 1.3 (2×) and 1.7 and 0.4 (2×)"}, {"measurement": "Glucose labeling of Inosine", "setting": "[11]", "result": "46.28% and 0.55% and 45.89% and 28.71% and 31.06% and 6.95%"}, {"measurement": "Relative level of Inosine", "setting": "[11]", "result": "1.9 and 1.5 and 4.0 and 5.0 and 1.2 and 4.1"}, {"measurement": "Glucose labeling of Inositol", "setting": "metabolite Inositol (KEGG C00137), CEM cells, 12 h following release from G1 arrest, replicates #1-#6", "result": 0.00, "unit": "%"}, {"measurement": "Relative level of Inositol", "setting": "metabolite Inositol (KEGG C00137), CEM cells, 12 h following release from G1 arrest, replicates #1-#6, listed as V", "result": "1.2 and 1.3 (2×) and 1.0 (3×)"}, {"measurement": "Glucose labeling of Isocaproate", "setting": "metabolite Isocaproate (X00005), CEM cells, 12 h following release from G1 arrest, replicates #1-#6", "result": 0.00, "unit": "%"}, {"measurement": "Relative level of Isocaproate", "setting": "metabolite Isocaproate (X00005), CEM cells, 12 h following release from G1 arrest, replicates #1-#6, listed as V", "result": "0.949 and 1.1 and 1.2 and 0.9 and 1.0 and 0.7"}, {"measurement": "Glucose labeling, a-KG", "setting": "[12]", "result": "12.64% and 3.49% and 7.53% and 10.05% and 2.98% and 1.28%"}, {"measurement": "Relative level, a-KG", "setting": "[12]", "result": "1.7 and 0.7 and 1.0 and 0.9 and 0.3 and 0.255"}, {"measurement": "decrease of glucose labeling of orotidine monophosphate (OMP)", "setting": "non-targeted LC-MS analysis", "result": 30, "unit": "%"}]}
